Measurements published in patent US4939125A, “Acyl derivatives of urdamycin A, their preparation and their use” (Hoechst Aktiengesellschaft, priority 1986, dated 1990).
In brackets after ≈: the same amount, converted by molar mass.

What was measured:
Type in all cases: cell-based
L 1210 tumor cells = assay: Proliferation experiment (MTT); conditions: carried out 4 times, deviation less than 15%; for IC50: Mus musculus, L1210, L 1210, 72 hours at 37° C., read-out: IC50, Proliferation test
Method: L 1210 tumor cells at the exponential growth phase (5×10^3 cells/ml, Roswell Park Memorial Institute (RPMI) medium) were incubated in a microtiter plate with […] recesses for a period of 72 hours at 37° C., 5% of CO2 and 95% relative atmospheric humidity and various concentrations of the test substances from Examples 1 to 5 and also 5',3B,4B,4C,8-penta-O-acetylurdamycin A. After 65 hours, 50 μl of 3-(4,5-dimethylthiazol-2-yl)-2,5-diphenyltetrazolium bromide (MTT) (2.5 mg/ml of MIT in phosphate buffer saline (PBS)) were added. The MTT was reduced by living cells into the red, water-insoluble dyestuff formazan. After a further 7 hours, the supernatant medium was carefully removed. Formazan was dissolved by adding 100 μl of dimethyl sulfoxide per recess and subsequently shaking gently. The extinction of each recess was determined using a multisan 340 CC photometer (Messrs. Flow) at 491 nm. The results were determined from the extinction ratio of cells with test substance to cells without test substance.
(§1) In all cases, the experiments were carried out 4 times. The deviation in the results was less than 15%.

L 1210 leukemia cells [1] = assay: In vitro cytostatic activity, colony formation (Hamburger and Salmon), continuous incubation; conditions: L 1210, continuous incubation, 5 to 7 days at 37° C., colonies from 60 μm, carried out 4 times, deviation less than 15%; for IC50: Mus musculus, L1210, read-out: IC50, Strain test, continuous
Method: (§2) The experiment was carried out in accordance with the process of Hamburger and Salmon [New Engl. J. Med. 298, 1321-1327 (1978)]. The medium was replaced by McCoy 5A, and the number of cells was reduced to 5×10^2 cells/plate.
A continuous incubation of cells with various concentrations of the test substance from Examples 1 to 5 and 5',3B,4B,4C,8-penta-O-acetylurdamycin A was carried out. The compounds to be tested were applied to the agar plates before plating-out the cell cultures. The cell cultures then grew for 5 to 7 days in the incubation in an atmosphere of 5% of CO2, 20% of O2 and 95% relative atmospheric humidity at 37° C. After this time, the number of cell colonies having a diameter from 60 μm was determined (in %) relative to the number of cell colonies which had grown in comparison without test substance.
(§3) The IC50 value for continuous and 1-hour incubation was determined from the dose/action curve.
as §1

L 1210 leukemia cells [2] = assay: In vitro cytostatic activity, colony formation (Hamburger and Salmon), 1-hour incubation; conditions: L 1210, 1 hour incubation at 37° C., then washed and plated, carried out 4 times, deviation less than 15%; for IC50: Mus musculus, L1210, read-out: IC50, Strain test, 1 hour
Method: as §2
In the test, the cells were incubated at 37° C. for 1 hour at various concentrations of the test substance. The cells were then washed twice with McCoy 5A solution and subsequently applied to agar plates in accordance with the method of Hamburger and Salmon. The cells were subsequently cultivated as described above, and the number of cell colonies was determined (evaluation as in a).
as §3, §1

| Compound | IC50 (L 1210 tumor cells) | IC50 (L 1210 leukemia cells [1]) | IC50 (L 1210 leukemia cells [2]) | IC50, Proliferation test (L 1210 tumor cells; L 1210, 72 hours at 37° C.) | IC50, Strain test, continuous (L 1210 leukemia cells [1]) | IC50, Strain test, 1 hour (L 1210 leukemia cells [2]) |
| --- | --- | --- | --- | --- | --- | --- |
| CC(=O)Oc1c(C2CC(OC3CCC(OC4CC(OC(C)=O)C(OC(C)=O)C(C)O4)C(C)O3)C(OC(C)=O)C(C)O2)ccc2c1C(=O)C1=C(C2=O)C2(OC3CCC(OC(C)=O)C(C)O3)C(=O)CC(C)(O)CC2(O)C=C1 (stereo not drawn) [Penta-O-acetylu. A, 5',3B,4B,4C,8-penta-O-acetylurdamycin A, reference compound] | < 1 µg/mL | 0.042 µg/mL (≈ 0.0398 µM) | 0.12 µg/mL (≈ 0.114 µM) |  |  |  |
| CCCCCCCC(=O)OC1CC(OC2CCC(OC3CC(c4ccc5c(c4O)C(=O)C4=C(C5=O)C5(OC6CCC(O)C(C)O6)C(=O)CC(C)(O)CC5(O)C=C4)OC(C)C3O)OC2C)OC(C)C1O (stereo not drawn) [3B-O-Octanoylurdamycin A] | < 1 µg/mL |  | 0.26 µg/mL (≈ 0.268 µM) |  |  |  |
| CC(=O)OC1CC(OC2CCC(OC3CC(c4ccc5c(c4O)C(=O)C4=C(C5=O)C5(OC6CCC(O)C(C)O6)C(=O)CC(C)(O)CC5(O)C=C4)OC(C)C3O)OC2C)OC(C)C1O (stereo not drawn) [3B-O-Acetylurdamycin A, 3B-O-acetylurdamycin A] | < 1 µg/mL | 0.28 µg/mL (≈ 0.316 µM) | 2.2 µg/mL (≈ 2.48 µM) |  |  |  |
| CC(=O)Oc1c(C2CC(OC3CCC(OC4CC(OC(C)=O)C(OC(C)=O)C(C)O4)C(C)O3)C(OC(C)=O)C(C)O2)ccc2c1C(=O)C1=C(C2=O)C2(OC3CCC(O)C(C)O3)C(=O)CC(C)(O)CC2(O)C=C1 (stereo not drawn) [5',3B,4B,8-Tetra-O-acetylu. A, 5',3B,4B,8-tetra-O-acetylurdamycin A] | < 1 µg/mL | 0.075 µg/mL (≈ 0.074 µM) |  |  |  |  |
| CCCCCCCC(=O)OC1C(O)CC(OC2CCC(OC3CC(c4ccc5c(c4O)C(=O)C4=C(C5=O)C5(OC6CCC(O)C(C)O6)C(=O)CC(C)(O)CC5(O)C=C4)OC(C)C3O)OC2C)OC1C (stereo not drawn) [4B-O-Octanoylurdamycin A] | < 1 µg/mL |  | 0.09 µg/mL (≈ 0.0927 µM) |  |  |  |
| CC(=O)OC1CCC(OC23C(=O)CC(C)(O)CC2(O)C=CC2=C3C(=O)c3ccc(C4CC(OC5CCC(OC6CC(OC(C)=O)C(OC(C)=O)C(C)O6)C(C)O5)C(OC(C)=O)C(C)O4)c(O)c3C2=O)OC1C (stereo not drawn) [5',3B,4B,4C-Tetra-O-acetylu. A, 5',3B,4B,4C-tetra-O-acetylurdamycin A] | < 1 µg/mL | 0.078 µg/mL (≈ 0.077 µM) | 0.25 µg/mL (≈ 0.247 µM) |  |  |  |

Second part, the compound after the results:

| IC50 (L 1210 tumor cells) | IC50 (L 1210 leukemia cells [1]) | IC50 (L 1210 leukemia cells [2]) | IC50, Proliferation test (L 1210 tumor cells; L 1210, 72 hours at 37° C.) | IC50, Strain test, continuous (L 1210 leukemia cells [1]) | IC50, Strain test, 1 hour (L 1210 leukemia cells [2]) | Compound |
| --- | --- | --- | --- | --- | --- | --- |
| < 1 µg/mL | 0.13 µg/mL (≈ 0.14 µM) | 0.85 µg/mL (≈ 0.915 µM) |  |  |  | CC(=O)OC1CCC(OC23C(=O)CC(C)(O)CC2(O)C=CC2=C3C(=O)c3ccc(C4CC(OC5CCC(OC6CC(O)C(OC(C)=O)C(C)O6)C(C)O5)C(O)C(C)O4)c(O)c3C2=O)OC1C (stereo not drawn) [4B,4C-Di-O-acetylu. A, 4B,4C-di-O-acetylurdamycin A] |
| < 1 µg/mL | 0.11 µg/mL (≈ 0.118 µM) | 0.35 µg/mL (≈ 0.377 µM) |  |  |  | CC(=O)OC1CC(OC2CCC(OC3CC(c4ccc5c(c4O)C(=O)C4=C(C5=O)C5(OC6CCC(O)C(C)O6)C(=O)CC(C)(O)CC5(O)C=C4)OC(C)C3O)OC2C)OC(C)C1OC(C)=O (stereo not drawn) [3B,4B-Di-O-acetylu. A, 3B,4B-di-O-acetylurdamycin A] |
|  |  |  | < 1 µg/mL | 0.4 µg/mL | 1.1 µg/mL | 3B,4B,8-tri-O-acetylurdamycin A [3B,4B,8-Tri-O-acetylu. A] |
